Measurements from US9440963B2, “Compositions, formulations and methods for treating ocular diseases” (Aerpio Therapeutics Inc., priority 2013, dated 2016).
Converted amounts (≈) assume the structure as drawn. Where two headings read alike, the source gives them in different places.

Assay: Room temperature aqueous solubility with solubilizing agents (Example 36)
Format: physicochemical
Description: The room temperature aqueous solubility (mg/mL) of the a compound (4-{(S)-2-[(S)-2-methoxycarbonylamino)-3-phenylpropanamido]-2-[2-(thiophen-2-yl)thiazol-4-yl]ethyl}phenylsulfamic acid) in water, HPβCD, Poloxamer 407, and sulfobutylether-β-cyclodextrin, is provided in TABLE XXVII. Solubility in saline for the test compound is reduced presumably due to the common ion effect.
The solubility (mg/mL) of the test compound in mixtures of HPβCD and PEG400 is illustrated in TABLE XXVIII.

[1] = aqueous with cosolvent or surfactant or cyclodextrin, Solubility

Row | Solubility [mg/mL] | Solubility [1] [mg/mL] | Solubility (water, Solubility) [mg/mL] | SMILES
1 | 89 (≈ 167 mM) | 60 (≈ 113 mM) | 45 (≈ 84.5 mM) | CCc1csc([C@H](Cc2ccc(NS(=O)(=O)O)cc2)NC(=O)[C@H](Cc2ccccc2)NC(=O)OC)n1
2 | – | 42 (≈ 71.6 mM) | 38 (≈ 64.8 mM) | COC(=O)N[C@@H](Cc1ccccc1)C(=O)N[C@@H](Cc1ccc(NS(=O)(=O)O)cc1)c1nc(-c2cccs2)cs1
